Experimental data from ChEMBL document CHEMBL3507680, “University of Dundee, Gates Library screen for HepG2 cell viability”.

Assay: Human HepG2 cell viability assay in 384 well format
Format: toxicity, cell-based
Set-up: dose 125 nL, time 70.5 hour; cytotoxicity at 70.5 h: concentration not given beside the values
Details: HepG2 cells, read-out: Inhibition

Row | Structure (SMILES) | cytotoxicity at 70.5 h
1 | COC1CN(C(=O)CC(C)(C)C)CCC(=O)N(C)c2ccccc21 (stereo not given) | -4.95%
2 | O=C(C1CCC1)N1CCC(=O)N(C2CC2)Cc2cc(F)ccc21 | 1.48%
3 | CCN1Cc2ccccc2N(C(=O)C2CCC2)CCC1=O | -5.17%
4 | COCCn1ccc2c(C(=O)O)cccc21 | -3.92%
5 | CC(C)c1cc(C(=O)O)nc2[nH]c(=O)[nH]c(=O)c12 | -15.1%
6 | O=C(O)CCn1ccc2cc(Br)ccc21 | 9.71%
7 | O=C(O)Cc1cnc(-c2c(Cl)cccc2Cl)s1 | -12.9%
8 | Cc1ccc2cccc(Oc3nc(C)c(C(=O)O)s3)c2n1 | 14.9%
9 | Cc1nc(NC(C)C)nc2c1CN(Cc1cccs1)CC2 | 22.9%
10 | CC(=O)NCc1noc2c1CN(Cc1cccs1)CC2 | -1.08%
11 | CCN(CC)c1ccc2ccc(C(=O)NC3CC3)cn12 | -0.636%
12 | CS(=O)(=O)N1CCO[C@@H]2CCN(C(=O)c3cccs3)CC[C@H]21 | 1.12%
13 | O=C1CCCN1Cc1nnn2c1CN(c1ncccn1)CCC2 | -9.38%
14 | CC(=O)N1CC2(CCN(C(=O)c3cccc4[nH]ccc34)CC2)C1 | -8.74%
15 | O=C(N[C@@H]1CN(c2ncccn2)[C@@H]2CCCO[C@@H]21)c1cscn1 | 20.2%
16 | CS(=O)(=O)N1CC(c2nc[nH]n2)c2cc(C(=O)NC3CC3)ccc21 (stereo not given) | -3.52%
17 | CCc1nc(-c2noc3ccc(C(=O)NCCN(C)C)cc23)co1 | -4.76%
18 | O=C(N[C@@H]1CN(c2ncc(F)cn2)[C@@H]2COC[C@@H]21)c1cscn1 | -13.8%
19 | COCCN(C)C(=O)c1ccc2onc(-c3coc(C)n3)c2c1 | -16.8%
20 | CCOC1CC2(CCN(C(=O)COC)CC2)c2cc(F)ccc21 (stereo not given) | 1.7%
21 | CC(C)N1CCC2(CC1)CN(C)C(=O)C[C@H]2C(F)(F)F | -7.67%
22 | O=C(c1ccsc1)N1CCC2(CCN2Cc2ccc(F)cc2)C1 (stereo not given) | -8.12%
23 | CCN1C(=O)CCCC12CCCN(C(=O)c1ccsc1)C2 (stereo not given) | 1.97%
24 | O=C(c1ccc2c(c1)OCO2)N1C[C@H](OCC2CC2)[C@H]2COC[C@H]21 | -8.17%
25 | N#CCC(=O)NCc1nnc2n1CCN(Cc1nccs1)C2 | -4.61%
26 | CN1CCC2(CC1)CN(C)C(=O)C[C@@H]2C(F)(F)F | -2.18%
27 | CCN(CC)[C@@H]1CN(Cc2ccc(C)o2)[C@@H]2CCCO[C@H]12 | -14.1%

Row | Structure (SMILES) | cytotoxicity at 70.5 h
28 | N#CCC(=O)NCc1nnc2n1CCN(Cc1cccs1)C2 | -6.57%
29 | O=C(NC1CCC1)C1CCC2(CN(C(=O)c3ccno3)C2)O1 (stereo not given) | -14%
30 | Cc1ccc(C(=O)N2C[C@H]3CN(Cc4csc(C)n4)C[C@H]3C2)cn1 | 1.63%
31 | Cc1cnc(C(=O)N2C[C@H]3CN(Cc4nccs4)C[C@H]3C2)cn1 | -5.82%
32 | Cc1cccc(COC[C@H]2CC[C@H]3[C@H](CCN3Cc3ccco3)O2)n1 | -4.41%
33 | CCCS(=O)(=O)N1CC[C@@H]2[C@@H]1CC(=O)N2Cc1csc(C)n1 | -4.88%
34 | CCCN(CC)C(=O)c1ncn2c1CN(C)S(=O)(=O)c1ccccc1-2 | 1.29%
35 | O=C1CO[C@@H]2CN(C3CCOCC3)C[C@H]2N1Cc1ccncc1 | 4.06%
36 | O=C1CCCN1Cc1ncn2c1CN(C(=O)NC1CCCC1)CCC2 | 5.73%
37 | Cc1csc(CN2CCC[C@]3(C[C@H](OCC4CC4)CO3)C2)n1 | 1.27%
38 | Cc1nc(CN2C(=O)C[C@@H]3[C@@H]2CCN3S(=O)(=O)C2CC2)cs1 | 19.1%
39 | Cc1nc(CN2C[C@@H]3CN(C(=O)c4ccoc4C)C[C@@H]3C2)cs1 | 28.2%
40 | O=C1CCCN1Cc1ncn2c1CN(C(=O)NC1CCCCC1)CCC2 | 27.2%
41 | COCCO[C@@H]1CCN(C(=O)c2ccnnc2)[C@H]1Cc1cnn(C)c1 | -116%
42 | COCCN1C[C@@H]2CN(c3ncc(F)cn3)C[C@@H]2C1=O | -47.2%
43 | COCCO[C@H]1CCN(C(=O)c2ccoc2C)[C@H]1Cc1cnn(C)c1 | -114%
44 | COCCC(=O)N1CCC2(CCCN2Cc2cccc(Cl)c2)C1 (stereo not given) | -53.8%
45 | COCCO[C@@H]1CCN(C(=O)c2occc2C)[C@H]1Cc1cnn(C)c1 | -90.5%
46 | COc1nn(C)c2c1CCCN(C(=O)c1cccs1)C2 | -23.5%
47 | NC(Cc1nc(-c2ccccc2)no1)c1ccccc1 (stereo not given) | -6.63%
48 | CC(C)N(C)C(=O)C1CCC2(CCNCC2)O1 (stereo not given) | 5.71%
49 | CC(=O)N1CCC2(CC1)CN(C)CC[C@H]2C(F)(F)F | -4.42%
50 | O=C(N[C@@H]1CN[C@H]2CCCO[C@H]21)c1cccnc1 | 1.62%
51 | CN1CCN(Cc2cn3c(n2)CNCC3)CC1 | 23.1%
52 | Cc1ccc(NC2COC3(CCN(Cc4ccn(C)n4)CC3)C2)nn1 (stereo not given) | -7.47%
53 | Cc1noc([C@]23COC[C@H]2CN(Cc2cc(C)on2)C3)n1 | 47.3%
54 | O=S(=O)(N[C@@H]1CCO[C@]2(CCN(CC3CCOCC3)C2)C1)C1CC1 | -8.9%

Row | Structure (SMILES) | cytotoxicity at 70.5 h
55 | CC(=O)N1CCS(=O)(=O)[C@@H]2CCN(CC(C)C)CC[C@@H]21 | -6.52%
56 | CCO[C@@H]1CN(S(=O)(=O)c2cn(C)cn2)[C@@H]2CCCO[C@@H]21 | -10.2%
57 | CCC(=O)N1CCC2(CC1)CC(N1CCOCC1)c1cc(C)ccc12 (stereo not given) | -13.5%
58 | CC(=O)NCc1nn(C)c2c1CN(Cc1ccsc1)C2 | -6.78%
59 | Fc1cnc(N2CCCn3c(nnc3Cn3ccnc3)C2)nc1 | -4.74%
60 | Cn1nc(Cn2cccn2)c2c1CN(Cc1ccsc1)C2 | -1.91%
61 | Cn1nc(Cn2cccc2)c2c1CN(Cc1ccsc1)C2 | -9.77%
62 | CCS(=O)(=O)N1CCC2(CC1)CCn1c(-c3cnn(C)c3)cnc12 | -13%
63 | Cc1ncnc2c1CCN(c1ccccn1)CC2 | -14%
64 | CCCS(=O)(=O)N1CCC2(CC1)CCn1c(-c3cnn(C)c3)cnc12 | -11.3%
65 | Cn1cc(-c2cnc3n2CCC32CCN(S(=O)(=O)C3CC3)CC2)cn1 | -9.03%
66 | O=C(NCC1CC1)c1nc2c(o1)CN(CC1CC1)C2 | -6.5%
67 | CCN1CCCC12CCN(C(=O)c1ccsc1)CC2 | -7.76%
68 | CCOCC1CN(C(=O)c2ccncn2)Cc2cnn(C)c21 (stereo not given) | -3.18%
69 | CCOCC1c2c(cnn2C)CCN1C(=O)c1ccncn1 (stereo not given) | -14.6%
70 | COCCN1CCO[C@H]2CN(C(=O)c3ccncc3F)C[C@H]21 | -9.68%
71 | CCN(CC)[C@@H]1CN(C(=O)c2ccc(C#N)cc2)[C@@H]2CCCO[C@H]12 | -4.73%
72 | CCN(CC)[C@@H]1CN(C(=O)c2ccnnc2)[C@@H]2CCCO[C@H]12 | -8.7%
73 | O=C(NCC1CN(c2ncccn2)Cc2nccn2C1)c1cccnc1 (stereo not given) | -4.53%
74 | O=S(=O)(C1CC1)N1C[C@@H]2CN(Cc3cccs3)CCO[C@@H]2C1 | 11.2%
75 | CCS(=O)(=O)N1C[C@@H]2CN(Cc3cccs3)CCO[C@@H]2C1 | 6.04%
76 | O=C(Nc1cnccn1)[C@H]1CC[C@@H]2[C@@H](CCN2Cc2ccccn2)O1 | -0.71%
77 | Cc1oncc1C(=O)N1CCC2(CCN(Cc3cccnc3)C2=O)C1 (stereo not given) | -3.48%
78 | Cn1ccc(C(=O)NC2CCC23CCN(Cc2cnn(C)c2)CC3)c1 (stereo not given) | -1.29%
79 | Cc1nc(CN2C(=O)CC[C@@H]3[C@H]2CCN3C2CCOCC2)cs1 | -2.88%
80 | Cc1occc1C(=O)N1CCC2(CCN(Cc3ccccn3)C2=O)C1 (stereo not given) | 5.42%
81 | Cc1cnc(C(=O)N2CCC3(CCN(Cc4ccccn4)C3=O)C2)cn1 (stereo not given) | 6.84%

Row | Structure (SMILES) | cytotoxicity at 70.5 h
82 | CCC(C)(C)NC(=O)c1ncn2c1CN(C)S(=O)(=O)c1ccccc1-2 | 20.8%
83 | Cc1ccc(CN2CCC3(CCC3NC(=O)c3ccn(C)c3)CC2)s1 (stereo not given) | 0.0423%
84 | Cn1ccc(C(=O)NC2CCC23CCN(Cc2ccc(F)cc2)CC3)c1 (stereo not given) | -0.822%
85 | O=C(Nc1cnccn1)[C@@H]1CC[C@@H]2[C@@H](CCN2Cc2nccs2)O1 | -4.62%
86 | Cc1csc(CN2CCC[C@]3(C[C@@H](OCC4CC4)CO3)C2)n1 | 24.4%
87 | Cc1ccc(CN2CCn3cc(CNC(=O)c4cnn(C)c4)nc3C2)s1 | -102%
88 | CN1CC(=O)N(c2ccsc2)CC12CCN(S(=O)(=O)c1ccccc1)C2 (stereo not given) | -109%
89 | COCCNC(=O)c1cc(-c2cc[nH]n2)n2ccccc12 | -117%
90 | Cn1cccc1C(=O)NCc1cn2c(n1)CN(CC1CCOCC1)CC2 | -78.7%
91 | CC(C)n1nc(CN2CCOCC2)c2c1CN(Cc1ccsc1)C2 | -4.8%
92 | CC(C)NC(=O)c1ccc2nnc(C3CN(C)CCN3C)n2c1 (stereo not given) | -8.09%
93 | CN1CCN(C)C(c2nnc3ccc(C(=O)N4CCOCC4)cn23)C1 (stereo not given) | -21.5%
94 | Cc1ccc(CN2C[C@H](OCCN(C)C)[C@H]3OCCC[C@H]32)o1 | 3.05%
95 | CC(C)N1[C@H](CN2CCCC2)C[C@@H]2CN(C(=O)c3ccoc3)CC[C@@H]21 | 1.33%
96 | CN1CC(=O)N(c2cnn(C)c2)CC12CCN(CC1CC1)C2 (stereo not given) | -2.29%
97 | c1cncc(O[C@@H]2CC[C@H]3[C@H]2OCCN3C2CCCC2)c1 | 3.46%
98 | Cc1csc(CN2CC[C@H]3O[C@H](C(=O)Nc4cccnc4)CC[C@H]32)n1 | 8.96%
99 | COc1ccccc1CN1C[C@@H]2COC[C@]2(COc2cccnc2)C1 | -116%
100 | CC(C)CCN1CCc2c(C(=O)N(C)Cc3ccccn3)nn(C)c2C1 | -2.57%
101 | CC(C)n1nc(CNc2ncccn2)c2c1CN(C)CC2 | -6%
102 | CN1[C@H](CN2CCCC2)C[C@@H]2CN(Cc3ccoc3)CC[C@@H]21 | 4.1%
103 | Cc1ccsc1CN1C[C@@H]2CN(Cc3cccnc3)CCO[C@@H]2C1 | 10.4%
104 | Cc1nnc(N2CCCC3(CN(Cc4cccnc4)CCO3)C2)o1 (stereo not given) | -4.29%
105 | Cc1cccc(CN2C[C@@H]3COC[C@]3(COc3cccnc3)C2)n1 | -120%
